The values that follow come from US11820766B2, “Monoacylglycerol lipase modulators” (Janssen Pharmaceutica NV, priority 2018, dated 2023).

Structures are written as SMILES.

One assay concerns the target T1, human MGL from HeLa cells (Homo sapiens, UniProt Q99685).
T1 construct: combining endogenously expressed MGL from HeLa cells with test compounds; endogenous in cells; host or cells: HeLa cells / cell homogenates
T1 sequence (Q99685 1-303): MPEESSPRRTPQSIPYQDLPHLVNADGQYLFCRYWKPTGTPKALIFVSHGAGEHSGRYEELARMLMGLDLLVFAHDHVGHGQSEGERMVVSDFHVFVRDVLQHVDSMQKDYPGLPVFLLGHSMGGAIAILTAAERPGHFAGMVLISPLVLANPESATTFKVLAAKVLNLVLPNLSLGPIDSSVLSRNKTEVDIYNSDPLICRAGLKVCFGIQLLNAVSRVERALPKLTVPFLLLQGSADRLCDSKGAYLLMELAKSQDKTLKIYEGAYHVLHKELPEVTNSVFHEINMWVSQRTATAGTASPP
Briefly: In vitro MGL activity assay: [glycerol-1,3-3H]-oleyl glycerol cleavage by MGL from HeLa cells. The assay is classed as biochemical. The settings on record: 300 nM [Glycerol-1,3-3H]-oleyl glycerol, one hour. An excerpt: MGL is the predominant hydrolase in HeLa cells/cell homogenates.
`C[C@H]1c2nn(C)c(-c3cc(F)c(F)c(F)c3)c2CCN1C(=O)c1cn(C)c2ccc(F)cc12` [Example 356, [(7S)-2,7-Dimethyl-3-(3,4,5-trifluorophenyl)-5,7-dihydro-4H-pyrazolo[3,4-c]pyridin-6-yl]-(5-fluoro-1-methyl-indol-3-yl)methanone] registered an IC50 of 18.6 nM. Same read-out and setting: under `C[C@H]1c2nn(C)c(-c3cc(F)c(F)c(F)c3)c2CCN1C(=O)c1cnn(C)c1[C@H]1CC1F` (mixture of isomers) [Example 339, ((S)-2,7-Dimethyl-3-(3,4,5-trifluorophenyl)-2,4,5,7-tetrahydro-6H-pyrazolo[3,4-c]pyridin-6-yl)(cis-5-(2-fluorocyclopropyl)-1-methyl-1H-pyrazol-4-yl)methanone] stands 3.01 nM; under `C[C@H]1c2nn(C)c(-c3cc(F)c(F)c(F)c3)c2CCN1C(=O)c1cnc2c(c1)COCC2` [Example 567, 7,8-Dihydro-5H-pyrano[4,3-b]pyridin-3-yl-[(7S)-2,7-dimethyl-3-(3,4,5-trifluorophenyl)-5,7-dihydro-4H-pyrazolo[3,4-c]pyridin-6-yl]methanone], 1050 nM. Same read-out and setting: under `Cc1onc(C(=O)N2CCc3c(nn(C)c3-c3cc(F)c(F)c(F)c3)[C@@H]2C)c1C` [Example 352, (4,5-Dimethylisoxazol-3-yl)-[(7S)-2,7-dimethyl-3-(3,4,5-trifluorophenyl)-5,7-dihydro-4H-pyrazolo[3,4-c]pyridin-6-yl]methanone] stands 30.5 nM; under `C[C@H]1c2nn(C)c(-c3ccc(C(F)(F)F)nc3)c2CCN1C(=O)c1ccc2ncccc2c1` [Example 522, [(7S)-2,7-Dimethyl-3-[6-(trifluoromethyl)-3-pyridyl]-5,7-dihydro-4H-pyrazolo[3,4-c]pyridin-6-yl]-(6-quinolyl)methanone], 267 nM; under `C[C@H]1c2nn(C)c(-c3cc(F)c(F)c(F)c3)c2CCN1C(=O)c1n[nH]c2ccc(F)cc12` [Example 364, [(7S)-2,7-Dimethyl-3-(3,4,5-trifluorophenyl)-5,7-dihydro-4H-pyrazolo[3,4-c]pyridin-6-yl]-(5-fluoro-1H-indazol-3-yl)methanone], 20.3 nM.

Compound `C[C@H]1c2nn(C)c(-c3cc(F)c(F)c(F)c3)c2CCN1C(=O)c1ncn2ccccc12` [Example 420, [(7S)-2,7-Dimethyl-3-(3,4,5-trifluorophenyl)-5,7-dihydro-4H-pyrazolo[3,4-c]pyridin-6-yl]-imidazo[1,5-a]pyridin-1-yl-methanone] displayed a concentration for half-maximal inhibition (IC50) of 59.1 nM. Take `COc1cccc(-c2c3c(nn2C)[C@H](C)N(C(=O)c2ccc4ncccc4c2)CC3)c1` [Example 495, [(7S)-3-(3-Methoxyphenyl)-2,7-dimethyl-5,7-dihydro-4H-pyrazolo[3,4-c]pyridin-6-yl]-(6-quinolyl)methanone]: the midpoint of inhibition, the IC50, lay at 47.1 nM. Same read-out and setting: under `C[C@H]1c2nn(C)c(-c3cc(F)c(F)c(F)c3)c2CCN1C(=O)c1ncnc2c1ccn2C` [Example 466, [(7S)-2,7-Dimethyl-3-(3,4,5-trifluorophenyl)-5,7-dihydro-4H-pyrazolo[3,4-c]pyridin-6-yl]-(7-methylpyrrolo[2,3-d]pyrimidin-4-yl)methanone] stands 5.86 nM. Turning to `C[C@H]1c2nn(C)c(-c3cc(F)c(F)c(F)c3)c2CCN1C(=O)c1cnn(C)c1C1CC1(F)F` (single isomer, unassigned) [Example 337, (5-((R*)-2,2-difluorocyclopropyl)-1-methyl-1H-pyrazol-4-yl)((S)-2,7-dimethyl-3-(3,4,5-trifluorophenyl)-2,4,5,7-tetrahydro-6H-pyrazolo[3,4-c]pyridin-6-yl)methanone], the IC50 was 8.07 nM. For `C[C@H]1c2nn(C)c(-c3cc(F)c(F)c(F)c3)c2CCN1C(=O)c1cnc2ccncc2c1` [Example 488, [(7S)-2,7-Dimethyl-3-(3,4,5-trifluorophenyl)-5,7-dihydro-4H-pyrazolo[3,4-c]pyridin-6-yl]-(1,6-naphthyridin-3-yl)methanone], half-maximal inhibition (IC50) was put at 227 nM.

The assay is the same for the next values; noted with them: 300 nM [Glycerol-1,3-3H]-oleyl glycerol, one hour incubation.
`Cn1nc2c(c1-c1ccccc1)CCN(C(=O)c1nc3ccccc3o1)C2` [Example 57, Benzo[d]oxazol-2-yl(2-methyl-3-phenyl-2,4,5,7-tetrahydro-6H-pyrazolo[3,4-c]pyridin-6-yl)methanone] returned an IC50 of 1680 nM.

In turn, `Cn1nc2c(c1-c1ccccc1)CCN(C(=O)c1n[nH]c3ccccc13)C2` [Example 66, (1H-Indazol-3-yl)(2-methyl-3-phenyl-2,4,5,7-tetrahydro-6H-pyrazolo[3,4-c]pyridin-6-yl)methanone] showed an IC50 of 300 nM.

In turn, `C[C@H]1c2nn(C)c(-c3cc(F)cc(F)c3)c2CCN1C(=O)c1ccc(OCCF)cc1` [Example 138, (S)-(3-(3,5-Difluorophenyl)-2,7-dimethyl-2,4,5,7-tetrahydro-6H-pyrazolo[3,4-c]pyridin-6-yl)(4-(2-fluoroethoxy)phenyl)methanone] displayed an IC50 of 39.5 nM. On the same count and under the same terms, under `Cn1nc2c(c1-c1ccccc1)CCN(C(=O)c1cccc3ccsc13)C2` [Example 37, Benzo[b]thiophen-7-yl(2-methyl-3-phenyl-2,4,5,7-tetrahydro-6H-pyrazolo[3,4-c]pyridin-6-yl)methanone] stands 47.8 nM; under `C[C@H]1c2nn(C)c(-c3cc(F)c(F)c(F)c3)c2CCN1C(=O)c1cn(C)c2ncccc12` [Example 223, (S)-(2,7-Dimethyl-3-(3,4,5-trifluorophenyl)-2,4,5,7-tetrahydro-6H-pyrazolo[3,4-c]pyridin-6-yl)(1-methyl-1H-pyrrolo[2,3-b]pyridin-3-yl)methanone], 87.6 nM; under `C[C@H]1c2nn(C)c(-c3cc(F)c(F)c(F)c3)c2CCN1C(=O)c1cccc(-c2cnn(C)c2)c1` [Example 273, [(7S)-2,7-Dimethyl-3-(3,4,5-trifluorophenyl)-5,7-dihydro-4H-pyrazolo[3,4-c]pyridin-6-yl]-[3-(1-methylpyrazol-4-yl)phenyl]methanone], 93.1 nM. Same read-out and setting: under `C[C@H]1c2nn(C)c(-c3cc(F)cc(F)c3)c2CCN1C(=O)c1ccc2ncc(C(F)(F)F)cc2c1` [Example 165, (S)-(3-(3,5-Difluorophenyl)-2,7-dimethyl-2,4,5,7-tetrahydro-6H-pyrazolo[3,4-c]pyridin-6-yl)(3-(trifluoromethyl)quinolin-6-yl)methanone] stands 103 nM; under `C[C@H]1c2nn(C)c(-c3cncc(F)c3)c2CCN1C(=O)c1ccc2nccnc2c1` [Example 109, (S)-(3-(5-Fluoropyridin-3-yl)-2,7-dimethyl-2,4,5,7-tetrahydro-6H-pyrazolo[3,4-c]pyridin-6-yl)(quinoxalin-6-yl)methanone], 721 nM; under `COc1cc(F)cc(-c2c3c(nn2C)[C@H](C)N(C(=O)c2cc4nccnc4cc2F)CC3)c1` [Example 187, (S)-(3-(3-Fluoro-5-methoxyphenyl)-2,7-dimethyl-2,4,5,7-tetrahydro-6H-pyrazolo[3,4-c]pyridin-6-yl)(7-fluoroquinoxalin-6-yl)methanone], 41.7 nM. The same measure, in the same setting: under `Cn1nc2c(c1-c1ccccc1)CCN(C(=O)c1nccc3ccccc13)C2` [Example 88, Isoquinolin-1-yl(2-methyl-3-phenyl-2,4,5,7-tetrahydro-6H-pyrazolo[3,4-c]pyridin-6-yl)methanone] stands 47.3 nM.
